Here are results for six molecules from US11390543B2, “Sterilization method” (NEWSOUTH INNOVATIONS PTY LIMITED, priority 2017, dated 2022).

Where “and” joins values, the source holds several entries; their conditions need not be identical. Equal values may be shown once. Read-outs that look alike come from different tables or passages of the source.

Data set [1] can be described thus: pH of the solution measured during bubbling experiments. Format: physicochemical. The following applies: for pH: […] NaCl. Here is the method: The solubility at 52° C. (for viruses) and 43° C. (for E. coli) of the different gases used were obtained from literature values (http://www.engineeringtoolbox.com). The pH values were measured during the experiments and the Zeta potential values were measured during the experiments at a virus concentration of 10^8 per ml and E. coli concentration of 10^7 per ml.

For data set [2] the following is noted: cited from earlier work.
In data set [3] the test system is MS2 bacteriophage (ATCC 15597-B1). Description: MS2 virus inactivation by bubbling gas through 0.17 M NaCl solution in bubble column evaporator, double layer plaque assay. Format: cell-based. As to conditions: for MS2 virus inactivation, log reduction: inlet gas temperature 200° C., after 37.5 min; for MS2 virus log reduction: as time approached 10 mins. Here is the method:
MS2 bacteriophage (ATCC 15597-B1) was chosen as the model virus to evaluate the efficiency of methods of inactivation of viruses. MS2 is usually quantified by counting infectious units via a standard plaque assay that is commonly used for detection of MS2 in treated drinking water and waste-water.
Analysis of virus inactivation was carried out using the optimized Double Layer Plaque Assay technique described in Cormier et al, that detects only infectious viruses by using E. coli as their host.
A specific optimized Double Layer Plaque Assay technique as described in Cormier et al was used to assess the concentration of active MS2 viruses. This plaque assay method is commonly used for detection of MS2 in treated drinking water, wastewater and marine water. The water quality is assessed based on the ability of bacteriophages to kill the host bacteria and allow phages to propagate in a confluent lawn of bacterial host cells immobilized in a layer of agar.
A freeze-dried vial of MS2 bacteriophage was acquired from the American Type Culture Collection. Bacteriophage MS2 (ATCC 15597-B1) was replicated using Escherichia coli C-3000 (ATCC 15597) according to the International Standard ISO 10705-1 [31] and the Ultraviolet disinfection guidance manual of the United States Environmental Protection Agency. The zeta-potential of the MS2 viruses in 0.17 M NaCl solution with different gas bubbles was measured using a Malvern Zetasizer nano series instrument.
The gases were pumped through the electrical heater that maintained the gas temperature just above the sinter surface at the base of the bubble column evaporator at a particular temperature, depending on the experiment. The base of the bubble column evaporator was fitted with a 40-100 μm pore size glass sinter (type 2) of 135 mm diameter.
Once the aqueous solution was poured into the column, the temperature of the solution was measured with a thermocouple in the centre of the column solution. The gas was then passed through the sinter into the 300 ml solution to inactivate MS2 viruses or E. coli (in separate experiments). […]
Further experiments were also performed using MS2 virus in a 0.17 M NaCl solution (initial temperature of about 22° C.) in the BCE, with CO2 gas at different inlet temperatures (205° C., 150° C., 100° C., 11° C. and 20° C.) and with CO2 gas having an inlet temperature of 22° C. at different flow rates (27 l/min and 20 l/min).
Once the solutions with known concentration of coliphage and E. coli were prepared, experiments were conducted to study the inactivation of the coliphage with different gases and inlet gas temperatures. 1.3 ml samples were collected from 10 to 15 mm above the central area of the sinter every 6 minutes during 36 minutes for the virus experiments and every 2 min for the E. coli experiments. 0.07 ml of each sample was spotted in triplicate following the double layer plaque assay technique.
Plaque counts were performed for all 18-21 plates of each of the experiments. The mean and the standard deviation of each triplicated sample using a virus or bacteria survival factor: Log10(PFU/PFU0), where PFU0 is the initial number of PFU per sample and PFU is the PFU per sample after an exposure time in minutes. When plotted, a second order polynomial distribution was applied to fit the survival curves.

In data set [4] the test system is Escherichia coli C-3000 (ATCC15597). Description: E. coli inactivation by bubbling gas through 0.17 M NaCl solution in bubble column evaporator, plaque assay. Format: cell-based.
Data set [5] concerns E. coli. As to conditions: pH 4.2, stirred beaker, […] NaCl, 22° C., no bubbling. Here is the method:
(§1) To evaluate the effect of solution pH on the inactivation of MS2 bacteriophage and E. coli experiments, comparison tests using 0.17 M NaCl solution at pH 4.1, were carried out in a separate beaker, in a water bath. During these experiments, samples were regularly taken out from the beaker and analysed as before.
(§2) To determine if the reduction in pH, due to dissolved CO2 (equations 1, 2, 3 and 4), was related to its disinfectant effects, two experiments with carbonic acid (H2CO3) at pH 4.2 were conducted in a continuous stirred beaker, one for viruses and another one for bacteria.
(§3) Carbonic acid (H2CO3) was produced by bubbling 27 l/min. of pure CO2 through the 0.17 M NaCl solution during 10 minutes at 22° C. […] Some authors describe a small, low pH inactivation effect on microbial cells, since membranes stop protons from penetration but low pH makes membrane more permeable to other substances like CO2 due to the chemical modification on the phospholipid bilayer of membranes.

The subject of a further data set is MS2 bacteriophage. The following applies: pH 4.2, stirred beaker, […] NaCl, 22° C., no bubbling. The method, then:
as §1, §2, §3

A further data set deals with MS2 virus. The following applies: 1 to 2 M of NaCl; cited from earlier work.
The subject of data set [6] is E. coli. The following applies: cited from earlier work.
Where [7] appears, read: E. coli experiments, gases at 150° C. (combustion gas 58° C.).
Setting [8] is: MS2 experiments, gases at 200° C. (combustion gas 60° C.).
Setting [9] is: in water at 43° C., 1 atm (E. coli section).
[10] abbreviates: in water at 52° C., 1 atm (virus section).
Setting [11] is: inlet gas temperature 150° C., after 10 min.

For `[Ar]` [Argon], the pH in data set [1] (setting [7]) and in data set [1] (setting [8]) was 6.0 in each case. For the same molecule, the results for the Solubility in data set [2] (setting [9]) and in data set [2] (setting [10]) were 0.040 Grams dissolved in 1 Kg of wat and 0.035 Grams dissolved in 1 Kg of wat, respectively. For the same molecule, the “MS2 virus inactivation, log reduction” value in data set [3] is on record as 1.5 log. Moreover, the “E. coli inactivation, log reduction” value in data set [4] (setting [11]) is listed as 0.40 log.

As for `O=C=O` [Carbon dioxide], the pH in data set [1] (setting [7]) and in data set [1] (setting [8]) was 4.0 throughout. In data set [1] (dropped from 5.9 in less than 45 seconds), the “pH of the water when using CO2 gas in the bubble column” value was 4.2. In addition, the Solubility in data set [2] (setting [9]) is listed as 0.950 Grams dissolved in 1 Kg of wat; in data set [2] (setting [10]), 0.800 Grams dissolved in 1 Kg of wat. Further, the MS2 virus log-reduction in data set [3] (150° C. inlet CO2 temperature, after 7 min) stood at 2.3 log; in data set [3] (CO2 11° C. inlet temperature, 9° C. column temperature, after 6.5 minutes), 0.1 log; in data set [3] (CO2 at 22° C., 20 l/min, after 2 minutes) it was 0.35 log; in data set [3] (CO2 at 22° C., 27 l/min, after 2 minutes) it was 0.62 log; in data set [3] (CO2 at 200° C., after 3 min) it was 3 log. Moreover, the “MS2 virus inactivation rate” value in data set [3] (CO2 (100%) at 200° C., in 3.5 minutes) worked out at 2.7 log. For the same molecule, the “MS2 virus log reduction” value in data set [3] (CO2 at 22° C., 20 l/min) was “about 1 log”; in data set [3] (CO2 at 22° C., 27 l/min), “about 1 log”. The “MS2 virus log inactivation” value in data set [3] (CO2 at 200° C., within 5 min) came out at 2.0 log. Also, the MS2 virus reduction in data set [3] (CO2 bubbles at room temperature, 10 min) is reported as 1 log. For the same molecule, in data set [4] (inlet gas temperature 150° C., after 10 min, listed as CO2), the “E. coli inactivation, log reduction” value was 2.84 log and 2.6 log.

In the case of `O=C(O)O` [Carbonic acid (H2CO3), Carbonic acid], the “E. coli log removal” value in the data set on E. coli [5] is given as 0.08 log. The molecule also came in with a log virus reduction in the data set with MS2 bacteriophage of 0.002 log.

Regarding `[Cl-].[Na+]` [NaCl], in the data set on MS2 virus, the “stability of MS2 virus in the presence of NaCl” value is listed as “stable”. Further, the “inactivation of E. coli by NaCl solutions” value in the data set with E. coli [6] is recorded as “do not inactivate E. coli”.

In the case of `N#N` [Nitrogen], in data set [3], the “MS2 virus inactivation, log reduction” value is given as 1.5 log. Further, the “E. coli inactivation, log reduction” value in data set [4] (setting [11]) is 1.74 log and 1.5 log.

For the molecule `O=O` [Oxygen], the pH in data set [1] (setting [7]) worked out at 6.1; in data set [1] (setting [8]), 6. In addition, the Solubility is recorded as 0.030 Grams dissolved in 1 Kg of wat in data set [2] (setting [9]) and 0.027 Grams dissolved in 1 Kg of wat in data set [2] (setting [10]). In data set [3], the “MS2 virus inactivation, log reduction” value amounted to 1.5 log. This molecule returned an E. coli reduction in data set [4] (oxygen at 150° C. inlet gas temperature as printed) of 0.65 log. The “E. coli inactivation, log reduction” value in data set [4] (oxygen bubbles at 150° C., after 3.5 minutes) turned out to be 2.90 log.
